Ki data for 26 molecules are collected here from patent US10160762B2, “6-alkyl dihydropyrazolopyrimidinone compounds as PDE2 inhibitors” (Merck Sharp & Dohme Corp., priority 2015, dated 2018).

Molecules are shown by their SMILES.

The target of this test is T1, Rhesus PDE2A3 (Macaca mulatta, UniProt B3VTJ2).
T1 construct: made in house; host or cells: AD293 cells, transient transfection; supernatant of sonicated lysate
T1 sequence (B3VTJ2 1-941): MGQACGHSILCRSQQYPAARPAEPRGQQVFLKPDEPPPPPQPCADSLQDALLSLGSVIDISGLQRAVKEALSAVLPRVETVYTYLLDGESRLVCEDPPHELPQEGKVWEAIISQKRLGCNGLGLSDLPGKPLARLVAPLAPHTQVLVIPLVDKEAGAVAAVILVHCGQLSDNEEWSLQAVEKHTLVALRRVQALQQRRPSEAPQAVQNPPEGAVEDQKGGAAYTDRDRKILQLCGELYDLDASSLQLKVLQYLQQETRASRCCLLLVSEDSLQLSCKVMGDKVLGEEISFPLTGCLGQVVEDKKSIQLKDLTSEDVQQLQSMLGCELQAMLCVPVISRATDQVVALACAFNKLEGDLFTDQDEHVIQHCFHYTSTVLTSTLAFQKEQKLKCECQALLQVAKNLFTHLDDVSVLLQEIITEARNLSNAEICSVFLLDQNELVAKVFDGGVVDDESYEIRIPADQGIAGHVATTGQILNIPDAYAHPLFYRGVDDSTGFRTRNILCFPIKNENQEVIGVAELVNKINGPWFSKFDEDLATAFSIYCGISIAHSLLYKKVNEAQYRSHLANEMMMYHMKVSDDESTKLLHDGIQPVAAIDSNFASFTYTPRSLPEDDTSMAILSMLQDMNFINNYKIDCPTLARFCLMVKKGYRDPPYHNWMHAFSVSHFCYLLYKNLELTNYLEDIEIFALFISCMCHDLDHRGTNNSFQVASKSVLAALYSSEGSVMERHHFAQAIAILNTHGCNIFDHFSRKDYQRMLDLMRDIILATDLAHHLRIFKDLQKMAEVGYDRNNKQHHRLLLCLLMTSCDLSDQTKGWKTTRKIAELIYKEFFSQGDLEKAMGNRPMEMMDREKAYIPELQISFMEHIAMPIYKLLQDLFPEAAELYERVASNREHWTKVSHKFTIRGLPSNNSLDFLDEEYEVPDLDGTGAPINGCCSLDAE
Put plainly: PDE2 fluorescence polarization (IMAP FP) inhibition assay, rhesus PDE2A3. It counts as biochemical, rhesus macaque. As to conditions: Lab B; read-out: Rhesus PDE2 Ki (nM) Lab B. In outline: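 Enzyme source was the lysate supernatant of AD293 cells transiently expressing rhesus PDE2A3, diluted to give 20% conversion of 50 nM FAM-cAMP, with 1 µM cGMP as activator. Buffer was 10 mM Tris pH 7.2, 10 mM MgCl2, 1 mM DTT.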
A general note: In fluorescence polarisation assays a small probe gives low polarisation when free and higher when bound to something large.

By Ki is commonly meant the dissociation constant of the complex between target and ligand, obtained from inhibition or displacement. Regarding `Cc1nc2c(c(CO)nn2C(c2ccc(C(F)(F)F)cc2)C(C)(C)C)c(=O)[nH]1` (single isomer, unassigned) [Example 83, (S)- or (R)-1-(2,2-Dimethyl-1-(4-(trifluoromethyl)phenyl)-propyl)-3-(hydroxymethyl)-6-methyl-1H-pyrazolo[3,4-d]pyrimidin-4(5H)-one], the Ki came out at 9.4 nM.

As to `COc1cccc(Cc2nc3c(c(CF)nn3C(C)c3ccc(C(F)(F)F)cc3)c(=O)[nH]2)c1` (single isomer, unassigned) [Example 221, (S)- or (R)-3-(Fluoromethyl)-6-(3-methoxybenzyl)-1-(1-(4-(trifluoromethyl)phenyl)ethyl)-1H-pyrazolo[3,4-d]pyrimidin-4(5H)-one], the Ki stood at 1.9 nM.

For the molecule `COCc1nc2c(c(CO)nn2C(C)c2ccc(C(F)(F)F)cc2)c(=O)[nH]1` (single isomer, unassigned) [Example 293], the Ki worked out at 3.6 nM.

As to `Cc1nc2c(c(CCO)nn2C(C)c2ccc(C(F)(F)F)cc2)c(=O)[nH]1` (single isomer, unassigned) [Example 250], the Ki was determined as 2 nM.

For the molecule `Cc1nc2c(c(CO)nn2C(c2ccc(C(F)(F)F)c(F)c2)C(C)C)c(=O)[nH]1` (single isomer, unassigned) [Example 87, (S)- or (R)-1-(1-(3-Fluoro-4-(trifluoromethyl)phenyl)-2-methylpropyl)-3-(hydroxymethyl)-6-methyl-1H-pyrazolo[3,4-d]pyrimidin-4(5H)-one], the Ki was 3.2 nM.

As for `COCc1nn(C(C)c2ccc(C(F)(F)F)cc2)c2nc(C)[nH]c(=O)c12` (single isomer, unassigned) [Example 279], the Ki was 24 nM.

With `Cc1nc2c(c(CO)nn2C(c2ccc(OC(F)(F)F)cc2)C(C)C)c(=O)[nH]1` (single isomer, unassigned) [Example 84, (R)- or (S)-3-(Hydroxymethyl)-6-methyl-1-(2-methyl-1-(4-(trifluoromethoxy)phenyl)propyl)-1H-pyrazolo[3,4-d]pyrimidin-4(5H)-one], the Ki worked out at 16 nM.

Take `Cc1nc2c(c(CO)nn2C(c2ccc(C(C)(C)C)cc2)C2CC2)c(=O)[nH]1` (single isomer, unassigned) [Example 89, (S)- or (R)-1-((4-tert-Butylphenyl)(cyclopropyl)methyl)-3-(hydroxymethyl)-6-methyl-1H-pyrazolo[3,4-d]pyrimidin-4(5H)-one]: the Ki amounted to 0.48 nM.

As to `Cc1nc2c(c(CO)nn2C(C)c2ccc(SC(F)(F)F)cc2)c(=O)[nH]1` (single isomer, unassigned) [Example 23, (S)- or (R)-3-(Hydroxymethyl)-6-methyl-1-(1-(4-(trifluoromethylthio)phenyl)ethyl)-1H-pyrazolo[3,4-d]pyrimidin-4(5H)-one], the Ki is 1.7 nM.

As for `CC(c1ccc(C(F)(F)F)cc1)n1nc(CO)c2c(=O)[nH]c(C(F)F)nc21` (centres unmarked) [Example 284, 6-(Difluoromethyl)-3-(hydroxymethyl)-1-(1-(4-(trifluoromethyl)phenyl)ethyl)-1H-pyrazolo[3,4-d]pyrimidin-4(5H)-one], the Ki was determined as 69 nM.

Consider `Cc1nc2c(c(CO)nn2C(C)c2ccc(OC(F)F)cc2)c(=O)[nH]1` (single isomer, unassigned) [Example 21, (S)- or (R)-1-(1-(4-(Difluoromethoxy)phenyl)ethyl)-3-(hydroxymethyl)-6-methyl-1H-pyrazolo[3,4-d]pyrimidin-4(5H)-one], for which the Ki worked out at 2.9 nM.

Take `Cc1nc2c(c(CO)nn2C(c2ccc(OC(F)(F)F)c(F)c2)C2CC2)c(=O)[nH]1` (single isomer, unassigned) [Example 93, (S)- or (R)-1-(Cyclopropyl(3-fluoro-4-(trifluoromethoxy)phenyl)methyl)-3-(hydroxymethyl)-6-methyl-1H-pyrazolo[3,4-d]pyrimidin-4(5H)-one]: the Ki worked out at 1.9 nM.

Consider `Cc1nc2c(c(CF)nn2C(c2ccc(C(F)(F)F)c(F)c2)C2CC2)c(=O)[nH]1` (single isomer, unassigned) [Example 226, (R)- or (S)-1-(Cyclopropyl(3-fluoro-4-(trifluoromethyl)phenyl)methyl)-3-(fluoromethyl)-6-methyl-1,5-dihydro-4H-pyrazolo[3,4-d]pyrimidin-4-one], for which the Ki was 0.33 nM.

Turning to `Cc1nc2c(c(CO)nn2C(c2ccc(C(F)(F)F)c(F)c2)C2CC2)c(=O)[nH]1` (single isomer, unassigned) [Example 91, (S)- or (R)-1-(Cyclopropyl(3-fluoro-4-(trifluoromethyl)phenyl)methyl)-3-(hydroxymethyl)-6-methyl-1H-pyrazolo[3,4-d]pyrimidin-4(5H)-one], the Ki is 1 nM.

In the case of `Cc1nc2c(c(CC#N)nn2C(C)c2ccc(C(F)(F)F)cc2)c(=O)[nH]1` (single isomer, unassigned) [Example 280], the Ki was 71 nM.

As for `Cc1nc2c(c(CO)nn2C(c2ccc(C(F)(F)F)cc2)C2(C)CC2)c(=O)[nH]1` (single isomer, unassigned) [Example 24, (R)- or (S)-3-(Hydroxymethyl)-6-methyl-1-((1-methylcyclopropyl)(4-(trifluoromethyl)phenyl)methyl)-1H-pyrazolo[3,4-d]pyrimidin-4(5H)-one], the Ki was determined as 1.9 nM.

On to `Cc1nc2c(c(CC#N)nn2C(C)c2ccc(C(F)(F)F)cc2)c(=O)[nH]1` (single isomer, unassigned) [Example 281], for which the Ki was determined as 1.9 nM.

Take `Cc1nc2c(c(CO)nn2C(C)c2ccc(C(F)(F)F)cc2F)c(=O)[nH]1` (single isomer, unassigned) [Example 17, (S)- or (R)-1-(1-(2-Fluoro-4-(trifluoromethyl)phenyl)ethyl)-3-(hydroxymethyl)-6-methyl-1H-pyrazolo[3,4-d]pyrimidin-4(5H)-one]: the Ki came to 1.7 nM.

`CC(C)c1nc2c(c(CO)nn2C(C)c2ccc(C(F)(F)F)cc2)c(=O)[nH]1` (racemic) [Example 296, 3-(Hydroxymethyl)-6-(1-methylethyl)-1-{1-[4-(trifluoromethyl)phenyl]ethyl}-1,5-dihydro-4H-pyrazolo[3,4-d]pyrimidin-4-one]: the Ki worked out at 36 nM.

Regarding `Cc1nc2c(c(CF)nn2C(c2ccc(OC(F)(F)F)c(F)c2)C2CC2)c(=O)[nH]1` (single isomer, unassigned) [Example 228, (R)- or (S)-1-(Cyclopropyl(3-fluoro-4-(trifluoromethoxy)phenyl)methyl)-3-(fluoromethyl)-6-methyl-1,5-dihydro-4H-pyrazolo[3,4-d]pyrimidin-4-one], the inhibitory constant (Ki) is 0.5 nM.

`Cc1nc2c(c(CC(F)(F)F)nn2C(c2ccc(C(F)(F)F)cc2)C(C)(C)C)c(=O)[nH]1` (single isomer, unassigned) [Example 57, (S)- or (R)-1-(2,2-Dimethyl-1-(4-(trifluoromethyl)phenyl)propyl)-6-methyl-3-(2,2,2-trifluoroethyl)-1H-pyrazolo[3,4-d]pyrimidin-4(5H)-one]: the Ki is 69 nM.

`Cc1nc2c(c(CF)nn2C(c2ccc(C(F)(F)F)cc2)C(C)(C)C)c(=O)[nH]1` (single isomer, unassigned) [Example 234, (S)- or (R)-1-(2,2-Dimethyl-1-(4-(trifluoromethyl)phenyl)propyl)-3-(fluoromethyl)-6-methyl-1H-pyrazolo[3,4-d]pyrimidin-4(5H)-one]: the Ki came out at 15 nM.

For the molecule `Cc1nc2c(c(CC(F)(F)F)nn2C(c2ccc(C(F)(F)F)cc2)C2(C)CC2)c(=O)[nH]1` (single isomer, unassigned) [Example 59, (S)- or (R)-6-Methyl-1-((1-methylcyclopropyl)(4-(trifluoromethyl)phenyl)methyl)-3-(2,2,2-trifluoroethyl)-1H-pyrazolo[3,4-d]pyrimidin-4(5H)-one], the inhibition constant (Ki) worked out at 22 nM.

For `Cc1nc2c(c(CO)nn2C(c2ccc(OC(F)(F)F)cc2)C(C)C)c(=O)[nH]1` (single isomer, unassigned) [Example 85, (S)- or (R)-3-(Hydroxymethyl)-6-methyl-1-(2-methyl-1-(4-(trifluoromethoxy)phenyl)propyl)-1H-pyrazolo[3,4-d]pyrimidin-4(5H)-one], the Ki worked out at 0.91 nM.

On to `Cc1nc2c(c(CO)nn2C2(c3ccc(C(F)(F)F)cc3)CCC2)c(=O)[nH]1` [Example 78, 3-(Hydroxymethyl)-6-methyl-1-(1-(4-(trifluoromethyl)phenyl)cyclobutyl)-1H-pyrazolo[3,4-d]pyrimidin-4(5H)-one], for which the Ki was 6.7 nM.

`Cc1nc2c(c(C(F)(F)CO)nn2C(C)c2ccc(C(F)(F)F)cc2)c(=O)[nH]1` (single isomer, unassigned) [Example 255]: the Ki was found to be 1.5 nM.
